Experiment in all cases: DTP human tumour cell line panel, 48 h
Experiment [1] deals with HS 578T breast.
The test system of experiment [2] is SK-MEL-28 melanoma.
For experiment [3], the system named is T-47D breast.
The test system of experiment [4] is CCRF-CEM leukemia.
For experiment [5], the system named is SK-OV-3 ovarian.
Experiment [6] concerns EKVX NSCLC.
In experiment [7] the test system is KM12 colon.

For 18 molecules, TGI results are on record in PubChem BioAssay (NCI).

Values joined by “and” are separate entries in the source; they are usually repeats but may differ in a detail not shown here. Equal values may be shown once.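 Tested at 5 concentrations; 48 h exposure; 96-well plates; endpoints linearly interpolated, else capped at highest concentration. Definition used: TGI = concentration required for complete inhibition of growth.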 A value given as a limit tells only on which side of the number the result lay.

For the molecule `CCc1nc(N)nc(N)c1-c1ccc(N2CCOCC2)c(N=[N+]=[N-])c1`, the TGI in experiment [1], in experiment [2], in experiment [3], in experiment [4], in experiment [5] and in experiment [6] was > 100 µM throughout. The TGI (as a rule, the concentration at which net growth stops) in experiment [7] was > 100 µM.

In the case of `O=[N+]([O-])c1ccc2c3c1[C@@H]1O[C@@H]1c1cccc(c1-3)[C@@H]1O[C@H]21`, the TGI in experiment [1] was 19.7 µM; in experiment [2], > 22.1 µM; in experiment [3], 12 µM; in experiment [4], 8.17 µM; in experiment [5], 44.3 µM; in experiment [6], 20.4 µM. The same molecule displayed a total growth inhibition concentration (TGI) in experiment [7] of 10.1 µM.

`CCCCCCCCCCCCCCCCOP(=O)([O-])OCC[N+](C)(C)C1CC(C)(C)N(O)C(C)(C)C1`: the TGI in experiment [1], in experiment [3], in experiment [5], in experiment [6] and in experiment [7] was > 100 µM in each case.

Turning to `Cc1cccc(C)c1NC(=O)C(=O)CC(=O)c1sc(Nc2c(C)cccc2C)nc1C`, the TGI in experiment [1], in experiment [3], in experiment [4], in experiment [5], in experiment [6] and in experiment [7] was > 100 µM in each case.

Take `CCCCCC(=O)OC[n+]1cccc(-c2c(COC(=O)NC(C)C)c(COC(=O)NC(C)C)c3n2CCC3)c1`: the TGI in experiment [1] was > 100 µM; in experiment [2] it was > 100 µM; in experiment [3] it was > 100 µM; in experiment [4], > 61 µM; in experiment [5], > 100 µM; in experiment [6], > 100 µM. Further, the total growth inhibition concentration (TGI) in experiment [7] was > 100 µM.

In the case of `O=c1c2sc3ccccc3sc=2c(=O)c2c(Cl)c(Cl)c(Cl)c(Cl)c12`, the total growth inhibition concentration (TGI) in experiment [1], in experiment [2], in experiment [3], in experiment [4], in experiment [5] and in experiment [6] was > 100 µM in each case. In experiment [7], the TGI is > 100 µM.

With `COC(=O)C(=O)C(C(=O)C(=O)Nc1cccc(OC)c1)c1nc2ccc(Cl)cc2[nH]c1=O` (stereo not drawn), the concentration for total growth inhibition (TGI) in experiment [1], in experiment [2], in experiment [3], in experiment [4], in experiment [5] and in experiment [6] was > 100 µM in each case. In addition, in experiment [7], the TGI is > 100 µM.

Consider `CCOc1ccc(NC(=O)C(=O)C(/C(=N/N)C(=O)OC)c2nc3ccc([N+](=O)[O-])cc3[nH]c2=O)cc1` (stereo not drawn), for which the TGI in experiment [1], in experiment [2], in experiment [3], in experiment [4], in experiment [5] and in experiment [6] was > 100 µM throughout. For the same molecule, the TGI in experiment [7] was > 100 µM.

Consider `Cc1nc2ccccc2n1Cc1nnc(-c2ccccc2)o1`, for which the TGI in experiment [1], in experiment [2], in experiment [3], in experiment [4], in experiment [5] and in experiment [6] was > 100 µM each time. The TGI in experiment [7] is > 100 µM.

With `Fc1ccc2c(c1)SC1=Nc3sc4cc(F)ccc4[n+]3CN12`, the TGI in experiment [1] is 38.4 µM; in experiment [2], > 100 µM; in experiment [3], 55.4 µM; in experiment [5], > 100 µM; in experiment [6], 79 µM.

With `COC(=O)[C@@H]1Cc2ccc(OC)c(c2)OCCC(=O)N1`, the TGI in experiment [1], in experiment [2], in experiment [3], in experiment [4], in experiment [5] and in experiment [6] was > 100 µM throughout. For the same molecule, the TGI in experiment [7] is > 100 µM.

`CCOC(=O)c1c(C)n(-c2ccc(C)cc2)c(=O)c2ccccc2c(=O)c2c(=O)ccc(=O)c1=2`: the TGI in experiment [1] is 44.7 µM; in experiment [2] it was 27.1 µM; in experiment [3] it was 72.2 µM; in experiment [4], > 100 µM; in experiment [5], 73.3 µM; in experiment [6] it was 80 µM. Besides, in experiment [7], the TGI is 30.3 µM.

Regarding `CC(C)(C)OC(=O)/N=C/c1c(O)c2ccccc2oc1=O`, the total growth inhibition concentration (TGI) in experiment [1] was 65.9 µM; in experiment [2], > 100 µM; in experiment [3], > 100 µM; in experiment [4], > 100 µM; in experiment [5], 0.0852 µM; in experiment [6] it was > 100 µM. Moreover, the concentration for total growth inhibition (TGI) in experiment [7] is > 100 µM.

In the case of `Cc1cnc2[nH]c(-c3cccc4ccccc34)cc(=O)c2c1`, the TGI in experiment [1] is > 100 µM; in experiment [2] it was > 100 µM; in experiment [3], > 100 µM; in experiment [4], > 100 µM; in experiment [5], 0.0952 µM; in experiment [6], > 100 µM. For the same molecule, the TGI in experiment [7] is 0.25 µM and 1.45 µM.

Take `COc1ccc(OC/C(N)=N/NC(=O)c2ccncc2)cc1`: the TGI in experiment [1], in experiment [2], in experiment [3], in experiment [4], in experiment [5] and in experiment [6] was > 100 µM each time. Also, the TGI in experiment [7] was > 100 µM.

`COC(=O)C1CC2CC1C1C2SC(F)(F)C1(F)F` (stereo not drawn): the total growth inhibition concentration (TGI) in experiment [1], in experiment [2], in experiment [3], in experiment [5], in experiment [6] and in experiment [7] was > 100 µM each time.

Consider `CC1=C(C(=O)NNC(=O)C[N+](C)(C)C)CC(C(=O)NNC(=O)C[N+](C)(C)C)=C(C)N1`, for which the total growth inhibition concentration (TGI) was > 100 µM in experiment [1]; > 100 µM in experiment [3]; 94 µM in experiment [4]; > 100 µM in experiment [5]; > 100 µM in experiment [6]; > 100 µM in experiment [7].

`N#CCC(=O)N/N=C\C(O)C(O)C(O)C(O)CO` (stereo not drawn): the concentration for total growth inhibition (TGI) in experiment [1], in experiment [2], in experiment [3], in experiment [4], in experiment [5] and in experiment [7] was > 100 µM in each case.
